Test results from patent US20220296595A1, “CDK INHIBITORS” (QILU REGOR THERAPEUTICS INC., priority 2019, published 2022).
Like-named read-outs stand apart in the source and are kept apart here.

What was measured:
CDK4/CyclinD1 = target: T1, CDK4/CyclinD1 (Homo sapiens, UniProt P11802); test: Assay for inhibition of CDK4/CyclinD1 (Caliper microfluidic kinase assay); type: biochemical
T1 construct: purchased Thermofisher PR8064A
Procedure, shortened: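 Caliper microfluidic mobility-shift assay tracking phosphorylation of 1 μM FL-34 peptide by 1 nM CDK4/CyclinD1 with 200 μM ATP in HEPES pH 7.5 buffer with 10 mM MgCl2. Reaction ran 3 h at room temperature, was stopped with EDTA, and IC50 came from a 4-parameter sigmoidal fit.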

CDK6/CyclinD3 = target: T2, CDK6/CyclinD3 (Homo sapiens, UniProt Q00534); test: Assay for inhibition of CDK6/CyclinD3 (Caliper microfluidic kinase assay); type: biochemical
T2 construct: purchased Carna 04-107
Procedure, shortened: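 Caliper mobility-shift readout of FAM-labelled peptide (FL-34, 1 μM) phosphorylation by 2 nM CDK6/CyclinD3 at 300 μM ATP in HEPES pH 7.5 buffer with MgCl2, DTT; 3 h at room temperature, EDTA stop. IC50 from 4-parameter sigmoidal fit.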

[1] = tested on: phosphorylation of Retinoblastoma Protein (pRb Ser807/811 or Ser780) in T47D cells; test: Inhibition of phosphorylation of retinoblastoma protein (pRb) in T47D cell (ELISA); type: cell-based, human; details: Homo sapiens, T47D, read-out: Phospho T47D Ser807 IC50, pRb Ser807 phosphorylation, T47D cells
Procedure: T47D breast cancer cells from American Type Culture Collection (ATCC, HTB-133) were plated at 40,000 cells/well in 96-well plates, and were incubated in RPMI 1640 medium (Gibco, 31800105) with 10% Fetal Bovine Serum (FBS, Biowest, FB-1058). Cells were then allowed to adhere overnight at 37° C., 5% CO2. The following day, compounds were titrated in a 3-fold dilution scheme, and the highest compound concentration tested was […]. After 24 hours incubation with compounds, cells were lysed in ice-cold lysis buffer containing phosphatase inhibitor cocktail and 1 mM PMSF. Cell lysates (50 μL/well) were then transferred to ELISA plates (pRb Ser807/811 ELISA kit, Cell Signaling, 13152 or pRb Ser780 ELISA kit, Cell Signaling, 13016)). Plates were incubated overnight at 4° C., with constant slow speed shaking. After incubation, plates were washed following manufacturer's recommendations, and then 100 μL reconstituted detection antibody was added to each well and incubated for 1 hour at 37° C. After incubation, plates were washed, and then 100 μL reconstituted HRP-linked secondary antibody was added to each well and incubated for 30 mins at 37° C. After incubation, plates were washed. Then, 100 μL TMB substrate was added to each well and incubated for 10 min at 37° C. or 30 min at 25° C. Finally, 100 μL of STOP solution was added to each well and mixed gently for a few seconds. Plates were read on the Envision plate reader (PerkinElmer, 2104-0010) using the 96-well […] mode. IC50 values were calculated using 4 parameter sigmoidal dose-response model of Xlfit5/GraphPad Prism 5 software.

CDK2/CyclinE1 = target: T3, CDK2/CyclinE1 (Homo sapiens, UniProt P24941); test: Assay for inhibition of CDK2/CyclinE1 (Caliper microfluidic kinase assay); type: biochemical; details: read-out: CDK2 IC50
T3 construct: purchased SignalChem C29-18G
Procedure, shortened: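 Caliper microfluidic mobility-shift assay: 5 nM CDK2/CyclinE1, 100 μM ATP, 5 μM FL-18 peptide (5-FAM-QSPKKG-NH2) in pH 7.5 HEPES buffer with MgCl2, DTT, BSA, Triton X-100. Incubated 3 hours at room temperature, EDTA-stopped; IC50 from 4-parameter sigmoidal fit.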

T47D breast cancer cells = test: Anti-proliferation assay in T47D cell (Cyquant, day 6); type: cell-based, human; details: Homo sapiens, T47D, anti-proliferation, T47D cells; read-out: T47D IC50
Procedure, shortened: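 Cells were grown in RPMI 1640 with 10% FBS at 37 °C and dosed the day after plating at ten concentrations, 10 μM to 0.51 nM in 3-fold steps. CyQuant fluorescence (ex 485/em 535 nm) was read on day 6. IC50 was fitted from baseline-subtracted viability curves, with the baseline read after overnight culture.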

T1 sequence (P11802 whole entry): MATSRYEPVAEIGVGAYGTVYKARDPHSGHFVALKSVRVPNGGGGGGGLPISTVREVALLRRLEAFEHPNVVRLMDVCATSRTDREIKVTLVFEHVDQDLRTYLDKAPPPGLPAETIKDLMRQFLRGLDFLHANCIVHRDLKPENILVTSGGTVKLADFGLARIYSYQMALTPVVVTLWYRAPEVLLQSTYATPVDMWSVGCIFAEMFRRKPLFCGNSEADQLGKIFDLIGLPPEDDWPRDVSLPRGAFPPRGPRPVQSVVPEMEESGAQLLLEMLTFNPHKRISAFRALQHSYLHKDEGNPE
T1 sequence (P24385 whole entry partner): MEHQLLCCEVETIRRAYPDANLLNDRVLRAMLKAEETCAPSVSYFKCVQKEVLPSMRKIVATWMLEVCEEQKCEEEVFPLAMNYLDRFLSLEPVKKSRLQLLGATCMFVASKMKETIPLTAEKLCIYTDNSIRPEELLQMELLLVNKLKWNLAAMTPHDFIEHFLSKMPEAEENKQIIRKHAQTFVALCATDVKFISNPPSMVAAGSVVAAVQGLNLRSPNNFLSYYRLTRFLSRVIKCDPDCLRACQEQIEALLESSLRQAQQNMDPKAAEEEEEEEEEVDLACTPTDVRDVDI
T2 sequence (Q00534 whole entry): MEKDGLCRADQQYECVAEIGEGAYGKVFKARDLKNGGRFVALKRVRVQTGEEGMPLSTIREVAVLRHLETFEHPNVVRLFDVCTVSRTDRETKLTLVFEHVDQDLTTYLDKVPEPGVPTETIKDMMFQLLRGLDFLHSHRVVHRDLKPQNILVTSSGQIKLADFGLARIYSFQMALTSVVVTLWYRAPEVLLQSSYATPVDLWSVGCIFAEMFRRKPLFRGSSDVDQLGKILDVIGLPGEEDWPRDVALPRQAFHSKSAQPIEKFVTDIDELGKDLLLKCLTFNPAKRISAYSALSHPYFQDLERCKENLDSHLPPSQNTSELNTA
T2 sequence (P30281 whole entry partner): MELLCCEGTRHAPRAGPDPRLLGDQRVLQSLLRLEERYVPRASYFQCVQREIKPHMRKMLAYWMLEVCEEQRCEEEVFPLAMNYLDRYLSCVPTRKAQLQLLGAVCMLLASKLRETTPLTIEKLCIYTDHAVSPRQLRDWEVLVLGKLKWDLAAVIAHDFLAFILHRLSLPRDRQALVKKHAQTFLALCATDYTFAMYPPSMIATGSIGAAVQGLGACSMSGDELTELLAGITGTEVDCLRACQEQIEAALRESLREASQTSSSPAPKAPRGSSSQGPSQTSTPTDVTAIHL

Row | SMILES | IC50 (CDK4/CyclinD1; CDK4/CyclinD1, 200 μM ATP) | IC50 (CDK6/CyclinD3; CDK6/CyclinD3, 300 μM ATP) | IC50 [1] | IC50 (CDK2/CyclinE1; CDK2/CyclinE1, 100 μM ATP) | IC50 (T47D breast cancer cells) | IC50 (CDK4/CyclinD1; CDK4/CyclinD1) | IC50 (CDK2/CyclinE1; CDK2/CyclinE1) | IC50 (CDK6/CyclinD3; CDK6/CyclinD3)
1 | CC(C)c1cnn2ccc(-c3nc(Nc4ccc(N5CCN(CCO)CCC5=O)cn4)ncc3F)cc12 [Synthetic Example 52] | < 10 nM | 10 to 100 nM | < 100 nM | 10 to 100 nM | – | – | – | –
2 | COc1nc(-c2ccnc(Nc3ccc4c(n3)CCN(C(=O)CN(C)C)C4)n2)cc2c1ncn2C(C)C [Synthetic Example 140] | < 10 nM | 10 to 100 nM | < 100 nM | > 1000 nM | – | – | – | –
3 | CC(C)c1cnn2c(C#N)cc(-c3ccnc(Nc4ccc(N5CCNCC5=O)cn4)n3)cc12 [compound 38] | 10 to 100 nM | – | 500 to 1000 nM | > 1000 nM | > 1000 nM | – | – | –
4 | COc1nc(-c2ccnc(Nc3ccc(N4CCOCC4)cn3)n2)cc2c1ncn2C(C)C [compound 66] | – | – | 100 to 500 nM | – | 100 to 500 nM | < 10 nM | > 1000 nM | –
5 | COc1nc(-c2ccnc(Nc3ccc(CN4CCC(F)(F)C4)cn3)n2)cc2c1ncn2C(C)C [compound 69] | – | – | 100 to 500 nM | – | 100 to 500 nM | 10 to 100 nM | > 1000 nM | –
6 | COc1nc(-c2ccnc(Nc3ccc(CN4CCOCC4)cn3)n2)cc2c1ncn2C(C)C [compound 81] | – | – | 100 to 500 nM | – | 100 to 500 nM | 10 to 100 nM | > 1000 nM | –
7 | COc1nc(-c2nc(Nc3ccc(N4CCCC4=O)cn3)ncc2F)cc2c1nc(C)n2C(C)C [compound 82] | – | – | 100 to 500 nM | – | 100 to 500 nM | 10 to 100 nM | 100 to 1000 nM | –
8 | COc1nc(-c2ccnc(Nc3ccc(N4CCOC(C)(C)C4)cn3)n2)cc2c1ncn2C(C)C [compound 88] | – | – | 100 to 500 nM | – | 100 to 500 nM | 10 to 100 nM | > 1000 nM | –
9 | COc1nc(-c2ccnc(Nc3ccc(N4CCOC(C)C4)cn3)n2)cc2c1ncn2C(C)C (stereo not shown) [compound 96] | – | – | 100 to 500 nM | – | 100 to 500 nM | 10 to 100 nM | > 1000 nM | –
10 | COc1nc(-c2ccnc(Nc3ccc(N4CCC(N5CCOCC5)CC4=O)cn3)n2)cc2c1ncn2C(C)C (stereo not shown) [compound 100] | – | – | 100 to 500 nM | – | – | < 10 nM | 100 to 1000 nM | 10 to 100 nM
11 | COc1nc(-c2ccnc(Nc3ccc(N4CC5CC4CO5)cn3)n2)cc2c1ncn2C(C)C (stereo not shown) [compound 104] | – | – | 100 to 500 nM | – | 100 to 500 nM | 10 to 100 nM | > 1000 nM | –
12 | COc1nc(-c2ccnc(Nc3ccc(N4CCNCC4=O)cc3F)n2)cc2c1ncn2C(C)C [compound 114] | < 10 nM | 10 to 100 nM | 100 to 500 nM | 10 to 100 nM | – | – | – | –
13 | COc1nc(-c2ccnc(Nc3ccc(N4CCNCC4=O)nc3)n2)cc2c1ncn2C(C)C [compound 119] | < 10 nM | 10 to 100 nM | 100 to 500 nM | 10 to 100 nM | – | – | – | –
14 | COc1nc(-c2ccnc(Nc3ccc(N4CCN(C5COC5)CC4)cn3)n2)cc2c1ncn2C(C)C [compound 130] | < 10 nM | – | 100 to 500 nM | > 1000 nM | 100 to 500 nM | – | – | –
15 | CCN1CCN(c2ccc(Nc3nccc(-c4cc5c(ncn5C(C)C)c(OC)n4)n3)nc2)C(=O)C1 [compound 134] | < 10 nM | 10 to 100 nM | < 100 nM | 100 to 1000 nM | – | – | – | –
16 | COc1nc(-c2nc(Nc3ccc(N4CCN(C5CCOCC5)CC4=O)cn3)ncc2F)cc2c1nc(C)n2C(C)C [compound 136] | < 10 nM | 10 to 100 nM | 100 to 500 nM | > 1000 nM | – | – | – | –
17 | COc1nc(-c2ccnc(Nc3ccc(N4CCN(C5COC5)CC4=O)cn3)n2)cc2c1ncn2C(C)C [compound 137] | < 10 nM | 10 to 100 nM | < 100 nM | 100 to 1000 nM | – | – | – | –
18 | CC(C)c1cnn2ccc(-c3ccnc(Nc4ccc(C(=O)N5CCC5)cc4)n3)cc12 [compound 169] | < 10 nM | 10 to 100 nM | < 100 nM | < 10 nM | – | – | – | –
19 | CCNC1CCN(c2ccc(Nc3nccc(-c4ccn5ncc(C(C)C)c5c4)n3)nc2)C(=O)C1 (stereo not shown) [compound 209] | < 10 nM | – | < 100 nM | < 10 nM | < 100 nM | – | – | –
20 | CC(C)(C)c1cnn2ccc(-c3ccnc(Nc4ccc(N5CCCC(N)C5=O)cc4)n3)cc12 (stereo not shown) [compound 218] | < 10 nM | < 10 nM | < 100 nM | < 10 nM | – | – | – | –
21 | CC(C)c1cnn2ccc(-c3ccnc(Nc4ccc(N5CCNCC5=O)nc4)n3)cc12 [compound 227] | < 10 nM | – | < 100 nM | < 10 nM | < 100 nM | – | – | –
22 | CC(C)n1cnc2c1CN(c1ccnc(Nc3ccc(N4CCN(S(C)(=O)=O)CC4=O)cn3)n1)CC2 [compound 240] | 10 to 100 nM | – | > 1000 nM | 10 to 100 nM | > 1000 nM | – | – | –
23 | CCN1CCN(c2ccc(Nc3nccc(N4CCc5ncn(C(C)C)c5C4)n3)nc2)C(=O)C1 [compound 241] | 10 to 100 nM | – | < 100 nM | 100 to 1000 nM | 100 to 500 nM | – | – | –
24 | CC(C)n1cnc2c1CN(c1ccnc(Nc3ccc(N4CCC(N5CC(F)C5)CC4=O)cn3)n1)CC2 (stereo not shown) [compound 243] | 10 to 100 nM | – | 100 to 500 nM | 10 to 100 nM | 500 to 1000 nM | – | – | –
25 | CN(C)C1CCCN(c2ccc(Nc3nccc(-c4cc(F)c5c(c4)C(C)(C)CO5)n3)nc2)C1=O (stereo not shown) [compound 261] | < 10 nM | 10 to 100 nM | < 100 nM | > 1000 nM | – | – | – | –
26 | CC1(C)COc2c(F)cc(-c3ccnc(Nc4ccc(N5CCCNC5=O)cn4)n3)cc21 [compound 262] | < 10 nM | – | < 100 nM | 100 to 1000 nM | < 100 nM | – | – | –
27 | CC(C)n1cnc2c(F)nc(-c3ccnc(Nc4ccc(N5CCC(C)(N)CC5=O)cn4)n3)cc21 (stereo not shown) [compound 271] | < 10 nM | < 10 nM | < 100 nM | 10 to 100 nM | – | – | – | –
28 | CC(C)n1cnc2c(F)nc(-c3ccnc(Nc4ccc(N5CCCNC5=O)cn4)n3)cc21 [compound 275] | < 10 nM | < 10 nM | < 100 nM | 100 to 1000 nM | – | – | – | –
